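Exposure lasted 48 hours, with cells grown in 96-well plates and compounds tested at five concentrations. GI50: concentration for 50% inhibition of growth. The concentration for full growth arrest is given as TGI.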
Key:
Test in all cases: NCI tumour cell line growth inhibition, 48 h
MALME-3M melanoma = tested on: MALME-3M melanoma
NCI/ADR-RES ovarian = tested on: NCI/ADR-RES ovarian
U251 CNS = tested on: U251 CNS
SK-OV-3 ovarian = tested on: SK-OV-3 ovarian
MOLT-4 leukemia = tested on: MOLT-4 leukemia
SNB-19 CNS = tested on: SNB-19 CNS
NCI-H522 lung = tested on: NCI-H522 lung
SK-MEL-28 melanoma = tested on: SK-MEL-28 melanoma
RXF 393 renal = tested on: RXF 393 renal
CCRF-CEM leukemia = tested on: CCRF-CEM leukemia
UACC-62 melanoma = tested on: UACC-62 melanoma
NCI-H460 lung = tested on: NCI-H460 lung
SF-295 CNS = tested on: SF-295 CNS
SF-268 CNS = tested on: SF-268 CNS
IGROV1 ovarian = tested on: IGROV1 ovarian
MDA-MB-468 breast = tested on: MDA-MB-468 breast
OVCAR-4 ovarian = tested on: OVCAR-4 ovarian
SW-620 colon = tested on: SW-620 colon
SR leukemia = tested on: SR leukemia
RPMI-8226 leukemia = tested on: RPMI-8226 leukemia
HS 578T breast = tested on: HS 578T breast
CAKI-1 renal = tested on: CAKI-1 renal
HCT-116 colon = tested on: HCT-116 colon
MDA-MB-435 = tested on: MDA-MB-435
M14 melanoma = tested on: M14 melanoma
UACC-257 melanoma = tested on: UACC-257 melanoma
K-562 leukemia = tested on: K-562 leukemia
ACHN renal = tested on: ACHN renal
SNB-75 CNS = tested on: SNB-75 CNS
KM12 colon = tested on: KM12 colon
MDA-MB-231 breast = tested on: MDA-MB-231 breast
OVCAR-8 ovarian = tested on: OVCAR-8 ovarian
OVCAR-5 ovarian = tested on: OVCAR-5 ovarian
SF-539 CNS = tested on: SF-539 CNS
TK-10 renal = tested on: TK-10 renal
786-0 renal = tested on: 786-0 renal
HOP-92 NSCLC = tested on: HOP-92 NSCLC
NCI-H226 lung = tested on: NCI-H226 lung
LOX IMVI melanoma = tested on: LOX IMVI melanoma
HL-60(TB) leukemia = tested on: HL-60(TB) leukemia
A549 NSCLC = tested on: A549 NSCLC
HCT-15 colon = tested on: HCT-15 colon
OVCAR-3 ovarian = tested on: OVCAR-3 ovarian
UO-31 renal = tested on: UO-31 renal
HCC-2998 colon = tested on: HCC-2998 colon
T-47D breast = tested on: T-47D breast
BT-549 breast = tested on: BT-549 breast
NCI-H23 lung = tested on: NCI-H23 lung
PC-3 prostate = tested on: PC-3 prostate
HT29 colon = tested on: HT29 colon
EKVX NSCLC = tested on: EKVX NSCLC
DU-145 prostate = tested on: DU-145 prostate
HOP-62 NSCLC = tested on: HOP-62 NSCLC
SK-MEL-2 melanoma = tested on: SK-MEL-2 melanoma
SN12C renal = tested on: SN12C renal
SK-MEL-5 melanoma = tested on: SK-MEL-5 melanoma
A498 renal = tested on: A498 renal
COLO 205 colon = tested on: COLO 205 colon
MCF7 breast = tested on: MCF7 breast

`O=C(CNc1nc(-c2ccccc2)cs1)Nc1ccc(Cl)cc1[N+](=O)[O-]` gave a GI50 (MALME-3M melanoma) of 2.21 µM, a TGI (MALME-3M melanoma) of 5.51 µM and a GI50 (NCI/ADR-RES ovarian) of 2.31 µM. The TGI (NCI/ADR-RES ovarian) was 6.53 µM, the GI50 (U251 CNS) was 2.06 µM and the TGI (U251 CNS) was 6.56 µM. The GI50 (SK-OV-3 ovarian) was 4.65 µM, the TGI (SK-OV-3 ovarian) was 19 µM and the GI50 (MOLT-4 leukemia) was 2.49 µM. For the same molecule, the TGI (MOLT-4 leukemia) was 13.9 µM, the GI50 (SNB-19 CNS) was 3.78 µM and the TGI (SNB-19 CNS) was 15 µM. The GI50 (NCI-H522 lung) was 1.8 µM, the TGI (NCI-H522 lung) was 3.95 µM and the GI50 (SK-MEL-28 melanoma) was 2.9 µM. The TGI (SK-MEL-28 melanoma) was 8.79 µM, the GI50 (RXF 393 renal) was 1.99 µM and the TGI (RXF 393 renal) was 6.5 µM. The GI50 (CCRF-CEM leukemia) was 3.29 µM, the TGI (CCRF-CEM leukemia) was over 100 µM and the GI50 (UACC-62 melanoma) was 1.33 µM. For the same molecule, the TGI (UACC-62 melanoma) was 3.25 µM, the GI50 (NCI-H460 lung) was 4.18 µM and the TGI (NCI-H460 lung) was 17.5 µM. The GI50 (SF-295 CNS) was 2.71 µM, the TGI (SF-295 CNS) was 11.1 µM and the GI50 (SF-268 CNS) was 2.1 µM. For the same molecule, the TGI (SF-268 CNS) was 7.08 µM, the GI50 (IGROV1 ovarian) was 2.9 µM and the TGI (IGROV1 ovarian) was 12.1 µM. For the same molecule, the GI50 (MDA-MB-468 breast) was 2.02 µM, the TGI (MDA-MB-468 breast) was 5.69 µM and the GI50 (OVCAR-4 ovarian) was 3.26 µM. It also gave a TGI (OVCAR-4 ovarian) of 13 µM, a GI50 (SW-620 colon) of 4.1 µM and a TGI (SW-620 colon) of 14.4 µM. It also gave a GI50 (SR leukemia) of 3.75 µM, a TGI (SR leukemia) of over 100 µM and a GI50 (RPMI-8226 leukemia) of 2.67 µM. It also gave a TGI (RPMI-8226 leukemia) of over 100 µM, a GI50 (HS 578T breast) of 2.39 µM and a TGI (HS 578T breast) of 9.58 µM. It also gave a GI50 (CAKI-1 renal) of 1.85 µM, a TGI (CAKI-1 renal) of 9.85 µM and a GI50 (HCT-116 colon) of 2.95 µM. For the same molecule, the TGI (HCT-116 colon) was 10.2 µM, the GI50 (MDA-MB-435) was 3.25 µM and the TGI (MDA-MB-435) was 9.42 µM. The GI50 (M14 melanoma) was 3.4 µM, the TGI (M14 melanoma) was 12.7 µM and the GI50 (UACC-257 melanoma) was 5.13 µM. For the same molecule, the TGI (UACC-257 melanoma) was 17 µM, the GI50 (K-562 leukemia) was 2.49 µM and the TGI (K-562 leukemia) was over 100 µM. It also gave a GI50 (ACHN renal) of 2.77 µM, a TGI (ACHN renal) of 10.5 µM and a GI50 (SNB-75 CNS) of 1.24 µM. It also gave a TGI (SNB-75 CNS) of 7.02 µM, a GI50 (KM12 colon) of 3.36 µM and a TGI (KM12 colon) of 13 µM. It also gave a GI50 (MDA-MB-231 breast) of 1.63 µM, a TGI (MDA-MB-231 breast) of 3.54 µM and a GI50 (OVCAR-8 ovarian) of 3.25 µM. It also gave a TGI (OVCAR-8 ovarian) of 13.1 µM, a GI50 (OVCAR-5 ovarian) of 2.49 µM and a TGI (OVCAR-5 ovarian) of 8.24 µM. For the same molecule, the GI50 (SF-539 CNS) was 1.84 µM, the TGI (SF-539 CNS) was 4.05 µM and the GI50 (TK-10 renal) was 6.12 µM. For the same molecule, the TGI (TK-10 renal) was 17.9 µM, the GI50 (786-0 renal) was 3.75 µM and the TGI (786-0 renal) was 14.2 µM. The GI50 (HOP-92 NSCLC) was 1.99 µM, the TGI (HOP-92 NSCLC) was 8.19 µM and the GI50 (NCI-H226 lung) was 2.64 µM. The TGI (NCI-H226 lung) was 13 µM, the GI50 (LOX IMVI melanoma) was 1.32 µM and the TGI (LOX IMVI melanoma) was 2.88 µM. It also gave a GI50 (HL-60(TB) leukemia) of 2.03 µM, a TGI (HL-60(TB) leukemia) of 6.56 µM and a GI50 (A549 NSCLC) of 3.93 µM. It also gave a TGI (A549 NSCLC) of 14.5 µM, a GI50 (HCT-15 colon) of 1.98 µM and a TGI (HCT-15 colon) of 4.53 µM. The GI50 (OVCAR-3 ovarian) was 2.36 µM, the TGI (OVCAR-3 ovarian) was 5.72 µM and the GI50 (UO-31 renal) was 1.62 µM. For the same molecule, the TGI (UO-31 renal) was 6.97 µM, the GI50 (HCC-2998 colon) was 2.71 µM and the TGI (HCC-2998 colon) was 10.2 µM. It also gave a GI50 (T-47D breast) of 2.46 µM, a TGI (T-47D breast) of 8.61 µM and a GI50 (BT-549 breast) of 2.84 µM. For the same molecule, the TGI (BT-549 breast) was 5.89 µM, the GI50 (NCI-H23 lung) was 3.08 µM and the TGI (NCI-H23 lung) was 12.6 µM. For the same molecule, the GI50 (PC-3 prostate) was 2.78 µM, the TGI (PC-3 prostate) was 16.2 µM and the GI50 (HT29 colon) was 3.79 µM. For the same molecule, the TGI (HT29 colon) was 14.4 µM, the GI50 (EKVX NSCLC) was 1.82 µM and the TGI (EKVX NSCLC) was 9.71 µM. The GI50 (DU-145 prostate) was 4.78 µM, the TGI (DU-145 prostate) was 18.7 µM and the GI50 (HOP-62 NSCLC) was 4.23 µM. For the same molecule, the TGI (HOP-62 NSCLC) was 17.3 µM, the GI50 (SK-MEL-2 melanoma) was 3.04 µM and the TGI (SK-MEL-2 melanoma) was 9.74 µM. It also gave a GI50 (SN12C renal) of 2.81 µM, a TGI (SN12C renal) of 10.7 µM and a GI50 (SK-MEL-5 melanoma) of 1.93 µM. The TGI (SK-MEL-5 melanoma) was 4.26 µM, the GI50 (A498 renal) was 7.9 µM and the TGI (A498 renal) was 20.4 µM. The GI50 (COLO 205 colon) was 2.61 µM, the TGI (COLO 205 colon) was 5.91 µM and the GI50 (MCF7 breast) was 2.84 µM. For the same molecule, the TGI (MCF7 breast) was 10.3 µM.

From PubChem BioAssay (NCI)
